{"source": "paper PMC12311725", "about": "“Identification of Ginsentide-like Peptides from Cacao Beans with Oxidative Stress Protection” (ACS Omega, 2025)", "key": {"trypsin": {"test_system": "trypsin", "assay": "Peptide stability assay with trypsin (RP-HPLC)", "format": "in vitro ADME", "details": "trypsin in 0.1 M ammonium bicarbonate buffer pH 8, 37 °C, 6 h; peptide 0.1 M [sic]; RP-HPLC peak area as % of initial", "method": "(§1) Stability studies were conducted using purified cocotide tC1 (0.1 M) and S-alkylated tC1 (iodoacetamido) under specific buffer conditions. Pepsin stability was assessed by incubating the samples in a mixture of pepsin at a ratio of 50:1 (w/v) in 0.2 M HCl at 37 °C. For trypsin stability, the samples were treated with trypsin in 0.1 M ammonium bicarbonate buffer (pH 8) at 37 °C. Analysis of stability assays involved collecting samples at various time points, which were then analyzed by reversed-phase high-performance liquid chromatography (RP-HPLC) using a linear gradient of mobile phase A (0.05% trifluoroacetic acid in water) and mobile phase B (0.05% trifluoroacetic acid in acetonitrile) on an Aeris Peptide XB-C18 column (Phenomenex). The stability results were expressed as a percentage of the initial concentration and determined by the peak area of the HPLC profile.\n(§2) 7 Proteolytic stability assays of cocotide tC1. Cocotide tC1 was incubated with either pepsin or trypsin at 37 °C for up to 6 h. S-alkylated tC1 was used as the control. At different time points, samples of cocotide tC1 and the control were quantified using reversed-phase high pressure liquid chromatography (RP-HPLC). The relative peak areas of the RP-HPLC profiles were used to quantify the percentage of peptides remaining after incubation with pepsin or trypsin."}, "pepsin": {"test_system": "pepsin", "assay": "Peptide stability assay with pepsin (RP-HPLC)", "format": "in vitro ADME", "details": "pepsin 50:1 (w/v) in 0.2 M HCl, 37 °C, 6 h; peptide 0.1 M [sic]; RP-HPLC peak area as % of initial", "method": "as §1, §2"}, "[1]": {"assay": "Post-translational modification analysis of methionine oxidation (tims-TOF MS/MS)", "format": "physicochemical", "details": "native peptide from aqueous extract", "method": "The primary sequences of cocotides from Theobroma cacao aqueous extracts were determined by LC-MS/MS sequencing as described previously. The C18-SPE fractionated Theobroma cacao aqueous extracts were redissolved in 20 mM DTT at 37 °C for 1 h followed by S-alkylation with 200 mM iodoacetamide at 37 °C for 1 h. The mixture was desalted with a C18 Zip-tip and subjected to analysis on a trapped ion mobility spectrometer-time-of-flight tandem mass spectrometer (tims-TOF MS/MS). Data analysis was performed using PEAKS Studio (version 11, Bioinformatics Solutions, Waterloo, ON, Canada) with a precursor ion tolerance of 10 ppm and a fragment ion tolerance of 0.05 Da. Carbamidomethylation at Cys was set as a fixed modification. Deamidation of […], oxidation of Met, and acetylation at Lys and N-term were set as variable modification. Peptide sequencing was performed using PEAKS DB protein identification, which integrates database search of an in-house ginsentide-like peptide library derived from Theobroma cacao transcriptome with de novo sequencing."}, "HaCaT keratinocytes": {"test_system": "HaCaT keratinocytes", "assay": "Live-cell confocal microscopy of internalization", "format": "cell-based, human", "details": "1 μM, 37 °C, 1 h, Z-stack confocal fluorescence", "method": "HaCaT (human keratinocyte) cells were cultured in Dulbecco’s modification of Eagle’s medium (DMEM) supplemented with 10% fetal bovine serum and 100 U/mL penicillin and streptomycin. They were grown in a 5% CO2 humidified incubator at 37 °C\nTo examine the internalization of FAM-tC1 in living cells, the cells were seeded on an 8-well chamber slide (Ibidi). Prior to incubation with FAM-tC1, the cells were stained with […]. FAM-tC1 was incubated on cells in phenol red-free and serum-free medium for 1 h at 37 °C. The slides were washed gently with PBS three times, and the medium was replaced prior to imaging. The slides were observed by using a Zeiss LSM 980 confocal microscope.\n8 Confocal image of fluorescent labeled FAM-tC1 in HaCaT keratinocytes. (A) 1 μM FAM-tC1 was incubated with HaCaT keratinocytes at 37 °C for 1 h, and Z-stack confocal analysis was performed. Green: FAM-tC1; Blue: Nucleus. The red outline indicates the region of interest (ROI) which is presented as a 3D-rendered Z-stack image on the right. (B) Fluorescence intensity line profiles measured across the ROI at three representative z-depths (bottom, middle, and top slice)."}, "[2]": {"assay": "Ferric Reducing Antioxidant Power (FRAP) assay", "details": "OxiSelect FRAP Assay Kit", "method": "OxiSelect Ferric Reducing Antioxidant Power (FRAP) Assay Kit (Cell Biolabs, USA) was used to measure the antioxidant potential of cocotide tC1. The assay was performed according to the manufacturer’s instructions ."}}, "note": "Where a SMILES comes first, the peptide text is derived from it. Bridges are numbered along the chain shown (N, C = ends). Where no end group is shown, it is not given here. The star is where a group is joined. 5FAM = O=C1OC2(c3ccc(O)cc3Oc3cc(O)ccc32)c2ccc(C(=O)*)cc21; Cam = NC(=O)C*"}
{"molecule": "CC[C@H](C)[C@H](NC(=O)CNC(=O)[C@H](CCSC)NC(=O)[C@@H]1CCCN1C(=O)[C@H](Cc1ccc(O)cc1)NC(=O)[C@H](CC(C)C)NC(=O)[C@H](CSCC(N)=O)NC(=O)CNC(=O)[C@H](CSCC(N)=O)NC(=O)[C@H](CC(N)=O)NC(=O)CNC(=O)[C@H](CSCC(N)=O)NC(=O)[C@H](CSCC(N)=O)NC(=O)[C@H](CC(=O)O)NC(=O)[C@H](CCSC)NC(=O)[C@@H]1CCCN1C(=O)[C@H](CC(N)=O)NC(=O)[C@H](Cc1ccccc1)NC(=O)[C@H](CCSC)NC(=O)[C@H](CSCC(N)=O)NC(=O)[C@H](Cc1ccccc1)NC(=O)CNC(=O)CNC(=O)[C@H](C)NC(=O)[C@H](CO)NC(=O)[C@H](CC(C)C)NC(=O)[C@@H](N)CSCC(N)=O)C(=O)N[C@@H](CSCC(N)=O)C(=O)N[C@@H](Cc1ccc(O)cc1)C(=O)NCC(=O)N[C@@H](CO)C(=O)NCC(=O)N[C@@H](CSCC(N)=O)C(=O)O", "note": "[S-alkylated cocotide tC1, reference compound] (H-C(Cam)LSAGGFC(Cam)MFNPMDC(Cam)C(Cam)GNC(Cam)GC(Cam)LYPMGIC(Cam)YGSGC(Cam)-OH)", "values": [{"measurement": "structural integrity retained (percentage of peptide remaining) after incubation with trypsin", "setting": "trypsin", "result": "degraded rapidly"}, {"measurement": "structural integrity retained (percentage of peptide remaining) after incubation with pepsin", "setting": "pepsin", "result": "degraded rapidly"}]}
{"molecule": "CLSAGGFCMFIPMDCCGNCGCLFPMGFCYGSGC (disulfide (positions not given here)) [cocotide tC2, ginsentide-like cysteine-rich peptide found in T. cacao aqueous extract]", "values": [{"measurement": "methionine oxidation pattern", "setting": "[1]", "result": "Met9 was more prone to oxidation than Met13"}]}
{"molecule": "CLSAGGFCVFNPMDCCGNCGCLYPMGICYGSGC (disulfide (positions not given here)) [cocotide tC7, ginsentide-like cysteine-rich peptide found in T. cacao aqueous extract]", "values": [{"measurement": "methionine oxidation pattern", "setting": "[1]", "result": "minimal oxidation"}]}
{"molecule": "CC[C@H](C)[C@@H]1NC(=O)CNC(=O)[C@H](CCSC)NC(=O)[C@@H]2CCCN2C(=O)[C@H](Cc2ccc(O)cc2)NC(=O)[C@H](CC(C)C)NC(=O)[C@@H]2CSSC[C@@H]3NC(=O)[C@H](Cc4ccccc4)NC(=O)CNC(=O)CNC(=O)[C@H](C)NC(=O)[C@H](CO)NC(=O)[C@H](CC(C)C)NC(=O)[C@@H](NC(=O)[C@@H](N)CCCCNC(=O)c4ccc5c(c4)C(=O)OC54c5ccc(O)cc5Oc5cc(O)ccc54)CSSC[C@@H]4NC(=O)[C@H](CSSC[C@H](NC1=O)C(=O)N[C@@H](Cc1ccc(O)cc1)C(=O)NCC(=O)N[C@@H](CO)C(=O)NCC(=O)N[C@H](C(=O)O)CSSC[C@H](NC(=O)[C@H](CC(N)=O)NC(=O)CNC4=O)C(=O)NCC(=O)N2)NC(=O)[C@H](CC(=O)O)NC(=O)[C@H](CCSC)NC(=O)[C@@H]1CCCN1C(=O)[C@H](CC(N)=O)NC(=O)[C@H](Cc1ccccc1)NC(=O)[C@H](CCSC)NC3=O", "note": "[FAM-tC1] (H-K(5FAM)CLSAGGFCMFNPMDCCGNCGCLYPMGICYGSGC-OH; disulfide 2-17, 9-22, 16-29, 20-34)", "values": [{"measurement": "fluorescent signal in the nucleus", "setting": "HaCaT keratinocytes", "result": "no fluorescent signals were detected in the nucleus"}, {"measurement": "cell penetration (internalization)", "setting": "HaCaT keratinocytes; serum-free medium", "result": "readily penetrates the cells"}]}
{"molecule": "O=C1O[C@H]([C@@H](O)CO)C(O)=C1O", "note": "[ascorbic acid, reference compound]", "values": [{"measurement": "FRAP value", "setting": "[2]", "result": 0.36, "unit": "Fe^2+ μM/μM"}]}
